Laboratory results published in US9879043B1, “Synthesis of non-natural cofactor analogs of S-adenosyl-L-methionine using methionine adenosyltransferase” (University of Kentucky Research Foundation, priority 2013, dated 2018).

Experiments:
[1] = target: human MAT II catalytic alpha and regulatory beta subunit (hMAT2) (Homo sapiens, UniProt P31153); assay: MAT assay, turnover of S/Se-Met analogs to S(Se)AM analogs (RP-HPLC end point); format: biochemical; details: 2 mM Met analog, 1 mM ATP, 5 μM MAT, pH 8, 4 h, 37° C.; average of two assays
Method: (§1) Standard uniform assay conditions (2 mM Met analog, 1 mM ATP, 5 μM MAT, 25 mM Tris, 5 mM MgCl2, 50 mM KCl, pH 8, 4 h) were adopted to facilitate this broad assessment. For the thermophilic counterpart (mMAT), reactions were conducted at 65° C., while all other reactions were incubated at 37° C. Production of SAM analogs was determined by an RP-HPLC end point assay to afford complete analysis of the desired SAM analog and/or any corresponding degradation products known to directly derive from the desired SAM analog intermediate.
(§2) To monitor MAT reactions, analytical RP HPLC employed a Luna C18 column (5 μm, 4.6 mm×250 mm; Phenomenex, Torrance, Calif., USA) [gradient of 10% B to 40% B over 15 min, 40% B to 75% B over 5 min (A=10 mM NaH2PO4, 5 mM octane sulfonic acid, pH was adjusted to 3.5 using phosphoric acid; B=acetonitrile) flow rate=1 mL min^−1; A254].
(§3) The sMAT and mMAT reactions were conducted at 65° C. while hMATs and eMAT were incubated at 37° C. Reactions were quenched by adding an equal volume of methanol followed by centrifugation (10,000×g for 15 min) to remove the precipitated protein and product formation for each reaction was subsequently analyzed by RP-HPLC using Method D (FIG. 15, first column). For each reaction, percent yield was based upon the integration of species at 254 nm and calculated by dividing the integrated area of product and/or decomposed product by the sum of integrated area of product and/or decomposed product and the remaining substrate. The assays were repeated twice under identical conditions, and Table 2 (and FIG. 5) represents an average value of two assays. The inclusion of adenine and 5′-R-thio-5′-adenosine in these calculations is based upon the established SAM and ATP chemical decomposition pathways which indicate adenine and 5′-R-thio-5′-adenosine to only derive from SAM (not ATP). All putative products were subsequently confirmed by high resolution electrospray ionization (ESI) mass spectra with positive (+) and/or negative (−) mode.

[2] = target: human MAT II catalytic alpha subunit alone (hMAT2A) (Homo sapiens, UniProt P31153); assay: as above; format: biochemical; details: 2 mM Met analog, 1 mM ATP, 5 μM MAT, pH 8, 4 h, 37° C.; average of two assays
Method: as §1, §2, §3

| SMILES | Percentage Turn-over hMAT2 [1] | Percentage Turn-over hMAT2A [2] |
| --- | --- | --- |
| C[Se]CC[C@H](N)C(=O)O [2-Se, L-selenomethionine, reference compound] | 100% | 100% |
| CSCC[C@H](N)C(=O)O [compound 2, L-methionine] | 100% | 100% |
| CC[Se]CC[C@H](N)C(=O)O [compound 3-Se, (2S)-2-amino-4-(ethylselanyl)butanoic acid] | 82% | 53% |
| C#CC[Se]CC[C@H](N)C(=O)O [compound 4-Se, (2S)-2-amino-4-(prop-2-yn-1-ylselanyl)butanoic acid] | 58% | 44% |
| N#CC[Se]CC[C@H](N)C(=O)O [compound 6-Se, (2S)-2-amino-4-[(cyanomethyl)selanyl]butanoic acid] | 33% | 23% |
| C=CC[Se]CC[C@H](N)C(=O)O [compound 7-Se, (2S)-2-amino-4-(prop-2-en-1-ylselanyl)butanoic acid] | 59% | 42% |
| CCC[Se]CC[C@H](N)C(=O)O [compound 8-Se, (2S)-2-amino-4-(propylselanyl)butanoic acid] | 74% | 24% |
| CC(C)[Se]CC[C@H](N)C(=O)O [compound 9-Se, (2S)-2-amino-4-(propan-2-ylselanyl)butanoic acid] | 10% | 11% |
| C#CCC[Se]CC[C@H](N)C(=O)O [compound 10-Se, (2S)-2-amino-4-(but-3-yn-1-ylselanyl)butanoic acid] | 55% | 22% |
| C=C(C)C[Se]CC[C@H](N)C(=O)O [compound 12-Se, (2S)-2-amino-4-[(2-methylprop-2-en-1-yl)selanyl]butanoic acid] | 12% | 11% |
| CCCC[Se]CC[C@H](N)C(=O)O [compound 13-Se, (2S)-2-amino-4-(butylselanyl)butanoic acid] | 49% | 26% |
| CC(C)=CC[Se]CC[C@H](N)C(=O)O [compound 19-Se, (2S)-2-amino-4-[(3-methylbut-2-en-1-yl)selanyl]butanoic acid] | 15% | 9% |
| [N-]=[N+]=NC/C=C/C[Se]CC[C@H](N)C(=O)O [compound 23-Se, (2S)-2-amino-4-{[(2E)-4-azidobut-2-en-1-yl]selanyl}butanoic acid] | 15% | 9% |
| NC/C=C/C[Se]CC[C@H](N)C(=O)O [compound 24-Se, (2S)-2-amino-4-{[(2E)-4-aminobut-2-en-1-yl]selanyl}butanoic acid] | 25% | 16% |
